Literature values, collected in patent publication EP0023178A1, “Process for the preparation of concentrated solutions of amygdaline in its natural form” (SOMET, Société dite, priority 1979, dated 1981).

Details: water

N#CC(OC1OC(COC2OC(CO)C(O)C(O)C2O)C(O)C(O)C1O)c1ccccc1 (stereo not drawn) [amygdaline, D ou R mandélonitrile β-gentiobioside trihydraté]
solubilité dans l'eau: 8-8,5%
